According to patent US10940201B2, “Nucleic acid derivative having immunostimulatory activity” (Shionogi & Co., Ltd., priority 2015, dated 2021):
pEC50: −log10 of the molar value. In the oligonucleotide strings, read from the 5' end, every base follows the letter of its sugar. An asterisk marks phosphorothioate; unmarked linkages are phosphodiester. Other units and linkages are bracketed, terminal groups are in braces. A string of capitals states the bases alone. d = 2'-deoxy (DNA)

Legend:
[1] = biological target: T1, human TLR9 (Homo sapiens, UniProt Q9NR96); assay: Reporter assay with HEK-Blue hTLR9 cells (TLR9 agonist activity); assay type: cell-based; settings: Table 30; CpG oligonucleotides except for ODN2006 and their double strands; read-out: EC50
T1 construct: host or cells: HEK-Blue hTLR9 cells (HEK293)
T1 sequence (Q9NR96 26-1032): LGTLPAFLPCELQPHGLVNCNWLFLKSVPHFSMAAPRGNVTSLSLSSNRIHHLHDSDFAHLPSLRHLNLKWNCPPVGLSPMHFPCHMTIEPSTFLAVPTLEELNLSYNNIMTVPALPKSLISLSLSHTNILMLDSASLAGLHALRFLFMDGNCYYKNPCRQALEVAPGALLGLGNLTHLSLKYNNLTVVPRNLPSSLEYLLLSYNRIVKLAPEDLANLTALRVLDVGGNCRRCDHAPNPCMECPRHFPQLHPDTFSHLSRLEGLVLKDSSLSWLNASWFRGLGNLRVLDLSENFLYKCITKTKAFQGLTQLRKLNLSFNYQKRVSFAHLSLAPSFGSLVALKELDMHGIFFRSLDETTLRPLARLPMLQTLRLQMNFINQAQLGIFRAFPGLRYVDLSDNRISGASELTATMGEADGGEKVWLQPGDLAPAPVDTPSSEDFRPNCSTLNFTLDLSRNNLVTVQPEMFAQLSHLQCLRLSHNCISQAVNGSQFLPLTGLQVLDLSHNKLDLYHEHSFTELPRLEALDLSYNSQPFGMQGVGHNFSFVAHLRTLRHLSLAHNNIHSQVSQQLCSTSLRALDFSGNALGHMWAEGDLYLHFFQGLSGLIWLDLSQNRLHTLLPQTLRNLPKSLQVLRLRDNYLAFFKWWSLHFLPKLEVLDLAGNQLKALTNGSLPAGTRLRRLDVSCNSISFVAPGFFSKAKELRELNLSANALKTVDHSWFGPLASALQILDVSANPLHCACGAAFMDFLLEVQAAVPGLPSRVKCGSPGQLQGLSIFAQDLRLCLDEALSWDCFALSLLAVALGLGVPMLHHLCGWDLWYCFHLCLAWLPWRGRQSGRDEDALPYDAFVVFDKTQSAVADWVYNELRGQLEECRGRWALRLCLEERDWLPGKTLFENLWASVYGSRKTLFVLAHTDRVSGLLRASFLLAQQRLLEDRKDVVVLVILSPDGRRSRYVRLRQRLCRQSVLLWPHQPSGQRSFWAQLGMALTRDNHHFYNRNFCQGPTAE
Protocol: HEK-Blue™ hTLR9 cells (Invivogen) used for the reporter assay were made by introducing human TLR9 gene and a reporter gene that secretory alkaline phosphatase gene bound to NF-kB-AP-1 binding region sequence in HEK293 cells, and are the cells stably expressing the both genes. 3.6×10^4 of the cells suspended in HEK-Blue™ Detection ([…]) comprising substrates against the alkaline phosphatase were seeded on the 96 well plate, and 3 nM to 30 μM of a lipid binding double-stranded oligonucleotide of the present invention, the known CpG oligonucleotides (ODN2006, SEQ-49), or adjuvant based on design in Patent Document 1, i.e., ssCpG ODN introducing a lipid ligand (SEQ-142, 143 or 144) was added. After culturing in a 37° C., 5% CO2 incubator for 16 hours, absorbency at 620 nm was measured using the culture supernatant developed a color. The result value was analyzed with TIBCO Spotfire software, and calculated the 50% effective concentration (EC50) of each oligonucleotide.

[2] = tested on: TRP2-specific CTL; assay: CTL inducibility of TRP2 peptide vaccine with adjuvant (tetramer staining); assay type: in vivo, C57BL/6JJcl mice
[3] = tested on: recombinant PCRV protein; assay: Inducibility of antibody production in immunization by PCRV antigen vaccine (antibody titer); assay type: in vivo; settings: A/J mice, recombinant PCRV protein with adjuvant, intradermal; antiserum Day 33; FIG. 15
Protocol: Perv nucleotide sequence (SEQ ID NO: 48) derived from Pseudomonas aeruginosa Strain PAO1 was cloned at NdeI-XhoI site in pET21a vector, and Escherichia coli strain BL21 (DE3) was transformed with the prepared plasmid. Strain perV-BL21 (DE3) was cultured in 500 mL of LB/Ampicillin liquid medium at 37° C., and 200 μL of 0.1 M IPTG was added when OD600 became 0.5 to induce expression of recombinant PCRV protein. After culturing at 16° C. for 18 hours, bacteria was separated by a centrifuge, and 15 ml of Buffer A (50 mM Tris-HCl (pH8.0), 0.2M NaCl) comprising 0.5% lysozyme (SIGMA Corporation) was added. After putting at 4° C. for 30 minutes, ultrasonic treatment was carried out. After centrifugation at 12,000 rpm for 10 minutes, soluble fraction was obtained. 1 mL of Ni-NTA agarose gel (QIAGEN) was added to Polyprep column (BIO-RAD Laboratories, Inc) and equilibrated with 10 mL of Buffer A. Soluble fraction was added to the column and passed. […] The resulting recombinant PCRV protein was measured the concentration with BCA assay kit (PIERCE) and kept at −80° C. […]
Antibody titer was measured as blow. […] 20 μL/well of 0.5 N sulfuric acid (Nacalai) was added, and absorbance at 450 nm was measured with a plate reader. The dilution ratio when absorbance at 450 nm is 1.0 was calculated and put as an antibody titer.

[4] = tested on: TRP2-specific CTL; assay: CTL inducibility of TRP2 peptide vaccine with adjuvant (tetramer staining); assay type: in vivo, C57BL/6JJcl mice; remark: listed apart in the source
Protocol: (§1) C57BL/6JJcl mice (6 to 8 weeks old) were purchased from CLEA Japan, Inc.
(§2) an adjuvant of the present invention or the well-known CpG ODN
The specific immunity was induced by vaccinating a mouse twice at 7 days intervals. Each vaccine was that 100 μg of TRP2 peptide, and 1.57 or 4.71 nmol of an adjuvant of the present invention or well-known CpG ODN, were dissolved in 1×PBS. 100 μL of the vaccine was administered subcutaneous injection on the flank of a mouse.
100 μL of the emulsion vaccine was administered subcutaneous injection on the flank of a mouse twice at 7 days intervals.
(§3) On 7 days after second vaccination, the blood was collected, red blood cells was removed by BD Pharm Lyse (BD pharmingen), and the white blood cells were suspended in FACS buffer (1% fetal bovine serum, 2 mM PBS with EDTA). Anti-mouse CD16/32 monoclonal antibody (BioXcell) was added thereto, and Fc receptor blocking was carried out at 4° C. for 30 minutes. […] Then, staining was carried out with DAPI (Invitrogen) and the cells were washed twice with FACS buffer. It was resuspended in FACS buffer and analyzed by FACS verse Flow Cytometer (BD bioscience) and FAC Suite software (BD bioscience). For analysis, after DAPI negative fraction was gated, white blood cells fraction were provided using forward and side-way scattering as indicators. In the white blood cells fraction, both positive cells of Alexa 647-CD8 and PE-H-2Kb Tetramer were defined as CTLs. CTL ratio in white blood cells was used for evaluation.
After calculation of the average CTL inducibility of each group per experiment, the ratio against average value of CTL inducibility of ssCpG ODN, ODN1826 (SEQ-1) or ODN2006 (SEQ-49) as a control was calculated.
In the case of an adjuvant comprising ODN1826 (Average of CTL inducibility of the adjuvant group)/(Average of CTL inducibility of the ODN1826 group)=the ratio against average value In the case of an adjuvant comprising ODN2006 (Average of CTL inducibility of the adjuvant group)/(Average of CTL inducibility of the ODN2006 group)=the ratio against average value
CTL inducibility of each adjuvant was shown when CTL inducibility of ssCpG ODN was taken as 1, so the bigger value means the higher CTL inducibility.

[5] = tested on: antigen-specific CTL (OVA peptide); assay: CTL inducibility of OVA peptide vaccine with adjuvant (tetramer staining); assay type: in vivo, C57BL/6JJcl mice; settings: Table 32, 1.57 nmol/head, ODN1826 (SEQ-1) group = 1
Protocol: as §1, §2
The specific immunity was induced by vaccinating a mouse twice at 7 days intervals. […] 100 μL of the vaccine was administered subcutaneous injection on the flank of a mouse.
as §3, with “CTL ratio in white blood cells was used for evaluation.” left out
After calculation of the average CTL inducibility of each group per experiment, the ratio against average value of CTL inducibility of ssCpG ODN, ODN1826 (SEQ-1) or ODN2006 (SEQ-49) as a control was calculated. […]

[6] = tested on: B16F10 cells; assay: Anti-tumor effect of TRP2 peptide vaccine using an adjuvant; assay type: in vivo, mouse
Protocol: After immunization by TRP2 peptide vaccine, B16F10 cells (ATTC) which is mouse melanoma expressing TRP2 protein was subcutaneously transplanted to evaluate anti-tumor effect. […] The major and minor axes of the engrafted tumor were measured every 2 to 3 days, and the tumor volume was calculated by the formula: (major axis×minor axis^2)/2 Calculation method for indicators of anti-tumor effect For the adjuvant comprising ODN1826 100·(average tumor volume of adjuvant group)/(average tumor volume of ODN1826 group) For the adjuvant comprising ODN2006 100·(average tumor volume of adjuvant group)/(average tumor volume of ODN2006 group)

[7] = tested on: tumor growth; assay: Anti-tumor effect (tumor inhibition rate) of OVA peptide vaccine with adjuvant; assay type: in vivo, mouse; settings: Table 32, 1.57 nmol/head, compared to ODN1826 (SEQ-1)
Protocol: After immunization by TRP2 peptide vaccine, B16F10 cells (ATTC) which is mouse melanoma expressing TRP2 protein was subcutaneously transplanted to evaluate anti-tumor effect. In a similar method to Example 3 A), on the next day that tetramer-positive ratio in peripheral blood of mouse vaccinated twice every 7 days was observed, B16F10 cells (1×10^5 cells/mouse) were subcutaneously transplanted in the right shoulder. The major and minor axes of the engrafted tumor were measured every 2 to 3 days, and the tumor volume was calculated by the formula: (major axis×minor axis^2)/2 Calculation method for indicators of anti-tumor effect For the adjuvant comprising ODN1826 100·(average tumor volume of adjuvant group)/(average tumor volume of ODN1826 group) For the adjuvant comprising ODN2006 100·(average tumor volume of adjuvant group)/(average tumor volume of ODN2006 group)
The compound with bigger value has the stronger anti-tumor activity.
The activity of an adjuvant of the present invention having a lipid comprising two acyl chains comprising 10 to 20 carbon atoms as a ligand was examined with OVA peptide.

[8] = Table 65, 4.71 nmol, respective ssCpG ODN (ODN2216, ODN684, D-LS01) group = 1
[9] = Table 56, 4.71 nmol, SEQ-256 (D35-CpG) group = 1

Substance: SEQ-345 (dT*dC*dG*dC*dG*dA*dC*dG*dT*dT*dC*dG*dC*dC*dC*dG*dA*dC*dG*dT*dT*dC*dG*dG*dT*dA)
- pEC50 [1]: 5.20
- Ratio of average value of antigen-specific CTL [2, 8]: 1.00

Substance: SEQ-351 (dT*dC*dG*dT*dC*dG*dT*dT*dT*dT*dC*dG*dG*dC*dG*dC*dG*dC*dG*dC*dC*dG)
- pEC50 [1]: 4.94

Substance: SEQ-258 (sense GGTGCATCGATGCAGGGGGG; antisense CCCCCCTGCATCGATG; phosphorothioate, 5' L4-18 lipid, chemistry not fully specified)
- pEC50 [1]: 4.79
- Ratio of average value of antigen-specific CTL [2, 9]: 2.46

Substance: PCRV protein: recombinant PCRV protein C-end HIS derived from Pseudomonas aeruginosa Strain PAO1, antigen given without adjuvant as control
- antibody titer (dilution ratio when absorbance at 450 nm is 1.0) [3]: 1.3×10^5

Substance: SEQ-253 (sense dA*dT*dC*dG*dA*dC*dT*dC*dT*dC*dG*dA*dG*dC*dG*dT*dT*dC*dT*dC)
- pEC50 [1]: 5.54

Substance: SEQ-354 (dT*dC*dG*dT*dC*dG*dT*dC*dG*dT*dT*dC*dG*dA*dA*dC*dG*dA*dC*dG*dT*dT*dG*dA*dT)
- pEC50 [1]: 1.77
- Ratio of average value of antigen-specific CTL ([4]; Table 66, 4.71 nmol, SEQ-354 (ODN M362) group = 1): 1.00

Substance: ODN1826 [SEQ-1]
- Ratio of average value of antigen-specific CTL [5]: 1.00
- effect of inhibition on tumor progression of B16F10 cells (in words) [6]: little effect of inhibition on tumor progression of B16F10 cells
- Tumor inhibition rate (Day 14 after transplantation) ([6]; Table 37, 1.57 nmol/head, compared to ODN1826 (SEQ-1)): 0.00%
- Ratio of average value of antigen-specific CTL ([4]; Table 31, 1.57 nmol/head, ODN1826 (SEQ-1) group = 1): 1.00
- Ratio of average value of antigen-specific CTL ([4]; Table 33, 1.57 nmol/head, ODN1826 (SEQ-1) group = 1): 1.00
- Ratio of average value of antigen-specific CTL ([4]; Table 34, 1.57 nmol/head, ODN1826 (SEQ-1) group = 1): 1.00
- Ratio of average value of antigen-specific CTL ([4]; Table 35, 1.57 nmol/head, ODN1826 (SEQ-1) group = 1): 1.00
- Ratio of average value of antigen-specific CTL ([4]; Table 36, 1.57 nmol/head (Montanide 100 μL), ODN1826 (SEQ-1) group = 1): 1.00
- Ratio of average value of antigen-specific CTL ([4]; Table 37, 1.57 nmol/head, ODN1826 (SEQ-1) group = 1): 1.00
- CTL inducibility (in words) ([4]; adjuvants comprising ODN1826): TRP2-specific CTL was induced
- Tumor inhibition rate (Day 14 after transplantation) [7]: 0.00%

Substance: SEQ-256 (sense dG*dGdTdGdCdAdTdCdGdAdTdGdCdAdGdGdGdG*dG*dG)
- pEC50 [1]: 2.47
- Ratio of average value of antigen-specific CTL [2, 9]: 1.00

Substance: SEQ-342 (dT*dC*dG*dA*dC*dG*dT*dT*dC*dG*dT*dC*dG*dT*dT*dC*dG*dT*dC*dG*dT*dT*dC)
- pEC50 [1]: 5.63
- Ratio of average value of antigen-specific CTL [2, 8]: 1.00
